Literature values in patent US20230024950A1, “METHODS FOR TREATING NEURODEGENERATIVE DISORDERS” (Alzheon, Inc., priority 2019, published 2023).

Assays:
[1] = not given; remark: listed apart in the source
Aβ oligomers = Aβ oligomers (Homo sapiens, UniProt P05067); details: in vitro
Sequence of Aβ oligomers (P05067 672-713 limits assumed): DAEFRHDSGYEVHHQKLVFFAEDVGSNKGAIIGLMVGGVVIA

Compound | plasma exposure compared with tramiprosate from the Phase 3 studies (Phase 1b) | pharmacokinetics and oral tolerability compared with tramiprosate (oral) | safety profile ([1]; Phase 3 trials and safety extension study, exposures of up to 2.5 years) | effect on MRI imaging: brain hippocampal volume (hippocampus atrophy) ([1]; Phase 3 trials, mild-to-moderate AD, dose-dependent) | benefit on cognition ([1]; subgroup analysis of APOE4/4 homozygotes, 100 mg BID or 150 mg BID over 78 weeks) | cognitive efficacy ([1]; subset of APOE4 carriers, especially APOE4/4 homozygotes) | formation of Aβ oligomers (Aβ oligomers)
CC(C)[C@H](N)C(=O)NCCCS(=O)(=O)O [ALZ-801, valyl-3-amino-1-propanesulfonic acid] | bioequivalence to plasma exposures to tramiprosate | improved pharmacokinetics and oral tolerability over tramiprosate | – | – | – | – | –
NCCCS(=O)(=O)O [Tramiprosate, 3-amino-1-propanesulfonic acid] | – | – | favorable safety profile | slowing the reduction of brain hippocampal volume | positive and clinically meaningful benefit on cognition | positive cognitive efficacy | inhibits the formation of Aβ oligomers in vitro
